Assay [1] concerns β-catenin-TCF-mediated reporter transcription activity in Colo 205 cells. Nature of the assay: Colo 205 reporter assay (TCF/LEF promoter-driven firefly luciferase). Type of assay: cell-based. As to conditions: Homo sapiens; Colo 205 TCF/LEF luciferase reporter, 5 hours after compound addition, 384 well; read-out: Colo205 IC50. From the text:
The compounds of the invention described herein were screened using the assay procedure for β-catenin-TCF-mediated reporter transcription activity described below.
Reporter cell lines were generated by stably transfecting cells of cancer cell lines (e.g., colon cancer) with a plasmid reporter construct (From SABiosciences, a QIAGEN company) that includes TCF/LEF promoter driving expression of the firefly luciferase gene. TCF/LEF reporter constructs were made in which TCF/LEF promoter, a promoter with optimal number of TCF/LEF binding sites designed by SABiosciences, was linked upstream of the firefly luciferase gene. This construct could also include a puromycin resistance gene as a selectable marker. This construct could also be used to stably transfect Colo 205 cells, a colon cancer cell line having a mutated APC gene that causes a constitutively active β-catenin. A control cell line was generated using another plasmid construct containing the luciferase gene under the control of a CMV basal promoter which is not activated by β-catenin.
Colo 205 Cultured cells with a stably transfected reporter construct were plated at approximately 10,000 cells per well into 384 well multi-well plates for twenty four hours. The testing compounds were then added to the wells in 2-fold serial dilutions using a twenty micromolar top concentration. A series of control wells for each cell type received only compound solvent. Five hours after the addition of compound, reporter activity for luciferase was assayed, by addition of the SteadyGlo luminescence reagent (Promega). The reporter luminescence activity was measured using Pherastar plate reader (BMG Labtech). Readings were normalized to DMSO only treated cells, and normalized activities were then used in the IC50 calculations. The Colo 205 reporter assay data are summarized in Table 3: A<0.3 μM; 0.3 μM≤B<1.0 μM; 1.0 μM≤C<5.0 μM; D≥5.0 μM.
A general note: In a reporter assay the amount or activity of a reporter protein is the signal.

Assay [2] concerns XBP1(u)-luciferase splicing reporter in HepG2 hepatoma cells. The assay can be described thus: HepG2 XBP1 reporter assay (XBP1(u)-Luc). Conditions: Homo sapiens, 6 hours after compound addition, Table 3, read-out: XBP1-luc HepG2 1 EC50. Type of assay: cell-based.

A word on the IC50: it is the midpoint of a concentration-inhibition curve. The EC50 is the concentration that produces a half-maximal response.

Take `Cc1cc(N2CCCOC[C@@H]2c2ccc(NC3CN(C)C3)cc2Cl)nc(N)n1` [I-246, 4-[(3S)-3-[2-chloro-4-[(1-methylazetidin-3-yl)amino]phenyl]-1,4-oxazepan-4-yl]-6-methyl-pyrimidin-2-amine]: in assay [1], the IC50 was below 300 nM. For the same compound, the 50% effective concentration (EC50) in assay [2] is below 600 nM.

For `COc1ccccc1C1CCCCCN1c1cc(C)nc(N)n1` (stereo not drawn) [I-124], the IC50 in assay [1] is below 300 nM. In addition, the EC50 in assay [2] was 600 to 2000 nM.

`Cc1cc(N2CCCOCC2c2ccc(OCC3(C)CCOC3)cc2Cl)nc(N)n1` (racemic) [I-229, (+/−)-4-[3-[2-chloro-4-[(3-methyltetrahydrofuran-3-yl)methoxy]phenyl]-1,4-oxazepan-4-yl]-6-methyl-pyrimidin-2-amine]: the IC50 in assay [1] was in the range of 300 to 1000 nM. In addition, the 50% effective concentration (EC50) in assay [2] was below 600 nM.

As to `Cc1cc(N2CCCOCC2c2ccc(C3CCCO3)cc2Cl)nc(N)n1` (racemic) [I-235, (+/−)-4-(3-(2-chloro-4-(tetrahydrofuran-2-yl)phenyl)-1,4-oxazepan-4-yl)-6-methylpyrimidin-2-amine], the IC50 in assay [1] was below 300 nM. For the same compound, the EC50 in assay [2] is below 600 nM.

For `CC(=O)N1CC(Nc2ccc([C@H]3COCCCN3c3cc(C)nc(N)n3)c(Cl)c2)C1` [I-262, (S)-1-(3-((4-(4-(2-amino-6-methylpyrimidin-4-yl)-1,4-oxazepan-3-yl)-3-chlorophenyl)amino)azetidin-1-yl)ethan-1-one], the IC50 in assay [1] is below 300 nM. Moreover, the EC50 in assay [2] was below 600 nM.

Take `COc1ccc(C2CCCCCN2c2cc(C)nc(N)n2)cc1` (racemic) [I-23, (+/−)-4-[2-(4-methoxyphenyl)azepan-1-yl]-6-methyl-pyrimidin-2-amine]: the IC50 in assay [1] was in the range of 300 to 1000 nM. Further, the EC50 in assay [2] is at least 5000 nM.

For the compound `Cc1cc(N2CCCOC[C@@H]2c2ccc(N3CC4(CCO4)C3)cc2Cl)nc(N)n1` [I-260, 4-[(3S)-3-[2-chloro-4-(1-oxa-6-azaspiro[3.3]heptan-6-yl)phenyl]-1,4-oxazepan-4-yl]-6-methyl-pyrimidin-2-amine], the IC50 in assay [1] is below 300 nM. Further, the EC50 in assay [2] is below 600 nM.

For `Cc1cc(N2CCCOCC2c2ccc(N3CCN(C)CC3)cc2Cl)nc(N)n1` (racemic) [I-225, (+/−)-4-[3-[2-chloro-4-(4-methylpiperazin-1-yl)phenyl]-1,4-oxazepan-4-yl]-6-methyl-pyrimidin-2-amine], in assay [1], the IC50 lay within 300 to 1000 nM. In assay [2], the EC50 is 600 to 2000 nM.

Turning to `Cc1cc(N2CCCOCC2c2cc3c(cc2Cl)SCCN3)nc(N)n1` (racemic) [I-274, 4-[3-(7-chloro-3,4-dihydro-2H-1,4-benzothiazin-6-yl)-1,4-oxazepan-4-yl]-6-methyl-pyrimidin-2-amine], the IC50 in assay [1] is 300 to 1000 nM. Further, the EC50 in assay [2] is at least 5000 nM.

Turning to `Cc1cc(N2CCCOCC2c2ccc(NC(=O)C3(F)CCOC3)cc2Cl)nc(N)n1` (racemic) [I-279, (+/−)-N-(4-(4-(2-amino-6-methylpyrimidin-4-yl)-1,4-oxazepan-3-yl)-3-chlorophenyl)-3-fluorotetrahydrofuran-3-carboxamide], the IC50 in assay [1] was below 300 nM. Besides, the concentration giving a half-maximal response (EC50) in assay [2] is below 600 nM.

Consider `COc1cc(S(C)(=O)=O)ccc1[C@@H]1CCCCCN1c1cc(C)nc(N)n1` (single isomer, unassigned) [I-98, 4-[2-(2-methoxy-4-methylsulfonyl-phenyl)azepan-1-yl]-6-methyl-pyrimidin-2-amine], for which, in assay [1], the IC50 lay within 300 to 1000 nM. The EC50 in assay [2] was below 600 nM.

`Cc1cc(N2CCCOCC2c2ccc(OC3COC3)cc2Cl)nc(N)n1` (racemic) [I-231, (+/−)-4-[3-[2-chloro-4-(oxetan-3-yloxy)phenyl]-1,4-oxazepan-4-yl]-6-methyl-pyrimidin-2-amine]: the IC50 in assay [1] is below 300 nM. Moreover, the EC50 in assay [2] was below 600 nM.

In the case of `COc1ccccc1[C@H]1CCCCCN1c1cc(C)nc(N)n1` (single isomer, unassigned) [I-11], the IC50 in assay [1] was below 300 nM. In assay [2], the EC50 was 2000 to 5000 nM.

In the case of `CC(=O)Nc1cc(C2COCCCN2c2cc(C)nc(N)n2)c(Cl)cc1F` (racemic) [I-85, N-[5-[4-(2-amino-6-methyl-pyrimidin-4-yl)-1,4-oxazepan-3-yl]-4-chloro-2-fluoro-phenyl]acetamide], the half-maximal inhibitory concentration (IC50) in assay [1] was 300 to 1000 nM. Besides, the EC50 in assay [2] fell in the range of 600 to 2000 nM.

As to `CC(=O)N(C)Cc1ccc(C2COCCCN2c2cc(C)nc(N)n2)c(Cl)c1` (racemic) [I-254, (+/−)-N-(4-(4-(2-amino-6-methylpyrimidin-4-yl)-1,4-oxazepan-3-yl)-3-chlorobenzyl)-N-methylacetamide], the IC50 in assay [1] is below 300 nM. In addition, the EC50 in assay [2] is below 600 nM.

Regarding `Cc1cc(N2CCCOCC2c2cc3c(cc2Cl)SCC(=O)N3)nc(N)n1` (racemic) [I-268, 6-[4-(2-amino-6-methyl-pyrimidin-4-yl)-1,4-oxazepan-3-yl]-7-chloro-4H-1,4-benzothiazin-3-one], in assay [1], the IC50 is below 300 nM. Further, the EC50 in assay [2] was below 600 nM.

For the compound `COc1cccc(F)c1C1CCCCCN1c1cc(C)nc(N)n1` (racemic) [I-50, (+/−)-4-[2-(2-fluoro-6-methoxy-phenyl)azepan-1-yl]-6-methyl-pyrimidin-2-amine], the IC50 in assay [1] fell in the range of 300 to 1000 nM. Besides, the half-maximal effective concentration (EC50) in assay [2] lay within 600 to 2000 nM.

For the compound `Cc1cc(N2CCCOC[C@@H]2c2cc(NC3COC3)ccc2Cl)nc(N)n1` [I-258, 4-[(3S)-3-[2-chloro-5-(oxetan-3-ylamino)phenyl]-1,4-oxazepan-4-yl]-6-methyl-pyrimidin-2-amine], in assay [1], the IC50 is below 300 nM. In addition, the EC50 in assay [2] was below 600 nM.

Turning to `COc1ccc(OC)c(C2CCCCCN2c2cc(C)nc(N)n2)c1` (racemic) [I-25, (+/−)-4-(2-(2,5-dimethoxyphenyl)azepan-1-yl)-6-methylpyrimidin-2-amine], the IC50 in assay [1] is below 300 nM. Further, in assay [2], the EC50 was 600 to 2000 nM.

In the case of `Cc1cc(N2CCCOC[C@@H]2c2ccc(NCC3(O)CCC3)cc2Cl)nc(N)n1` [I-263, 1-[[4-[(3S)-4-(2-amino-6-methyl-pyrimidin-4-yl)-1,4-oxazepan-3-yl]-3-chloro-anilino]methyl]-cyclobutanol], the IC50 in assay [1] is below 300 nM. In addition, the EC50 in assay [2] was below 600 nM.

`Cc1cc(N2CCCOC[C@@H]2c2ccc(OC[C@@H](C)O)cc2Cl)nc(N)n1` (single isomer, unassigned) [I-265]: the IC50 in assay [1] was below 300 nM. Further, the 50% effective concentration (EC50) in assay [2] is below 600 nM.

In the case of `Cc1cc(N2CCCOC[C@@H]2c2ccc(N3CC(C)(O)C3)cc2Cl)nc(N)n1` [I-261, (S)-1-(4-(4-(2-amino-6-methylpyrimidin-4-yl)-1,4-oxazepan-3-yl)-3-chlorophenyl)-3-methylazetidin-3-ol], the half-inhibitory concentration (IC50) in assay [1] was below 300 nM. Further, in assay [2], the EC50 is below 600 nM.

Regarding `Cc1cc(N2CCCOCC2c2cc(NC(=O)C(F)F)ccc2Cl)nc(N)n1` (racemic) [I-250, (+/−)-N-(3-(4-(2-amino-6-methylpyrimidin-4-yl)-1,4-oxazepan-3-yl)-4-chlorophenyl)-2,2-difluoroacetamide], in assay [1], the IC50 was below 300 nM. Also, in assay [2], the EC50 was below 600 nM.

Regarding `Cc1cc(N2CCCCCC2c2ccccc2Cl)nc(N)n1` (stereo not drawn) [I-243], in assay [1], the IC50 was below 300 nM. Further, the EC50 in assay [2] was below 600 nM.

In the case of `Cc1cc(N2CCCOCC2c2cc(NC(=O)CC(C)(C)O)ccc2Cl)nc(N)n1` (racemic) [I-251, (+/−)-N-[3-[4-(2-amino-6-methyl-pyrimidin-4-yl)-1,4-oxazepan-3-yl]-4-chloro-phenyl]-3-hydroxy-3-methyl-butanamide], the IC50 in assay [1] is below 300 nM. Also, in assay [2], the EC50 lay in the range of 600 to 2000 nM.

Turning to `Cc1cc(N2CCCOC[C@@H]2c2cc(NCCO)ccc2Cl)nc(N)n1` (single isomer, unassigned) [I-253], the IC50 in assay [1] was below 300 nM. Also, the EC50 in assay [2] was below 600 nM.

On to `Cc1cc(N2CCCOCC2c2ccc(OCCC(C)(C)O)cc2Cl)nc(N)n1` (racemic) [I-230, (+/−)-4-[4-[4-(2-amino-6-methyl-pyrimidin-4-yl)-1,4-oxazepan-3-yl]-3-chloro-phenoxy]-2-methyl-butan-2-ol], for which the IC50 in assay [1] was in the range of 300 to 1000 nM. For the same compound, the EC50 in assay [2] was below 600 nM.

On to `Cc1cc(N2CCCOCC2c2cc(N3CC[C@H](O)C3)ccc2Cl)nc(N)n1` (stereo partly drawn) [I-234, (3S)-1-[3-[4-(2-amino-6-methyl-pyrimidin-4-yl)-1,4-oxazepan-3-yl]-4-chloro-phenyl]pyrrolidin-3-ol], for which the IC50 in assay [1] was in the range of 300 to 1000 nM. Further, the EC50 in assay [2] was below 600 nM.

Take `Cc1cc(N2CCCOCC2c2ccc(NC(=O)[C@@H]3CCOC3)cc2Cl)nc(N)n1` (mixture of isomers) [I-280, (3R)—N-(4-(4-(2-amino-6-methylpyrimidin-4-yl)-1,4-oxazepan-yl)-3-chlorophenyl)-tetrahydrofuran-3-carboxamide]: in assay [1], the IC50 fell in the range of 300 to 1000 nM. Further, the EC50 in assay [2] is below 600 nM.

On to `Cc1cc(N2CCCOCC2c2ccc(NC(=O)[C@H]3CCOC3)cc2Cl)nc(N)n1` (mixture of isomers) [I-281, (3S)—N-(4-(4-(2-amino-6-methylpyrimidin-4-yl)-1,4-oxazepan-3-yl)-3-chlorophenyl)-tetrahydrofuran-3-carboxamide], for which the IC50 in assay [1] was in the range of 300 to 1000 nM. For the same compound, the EC50 in assay [2] lay within 600 to 2000 nM.

The values above are taken from patent US11440907B1 (Merck Patent GmbH, priority 2018, dated 2022).
